{
  "source": "patent US8648045B2",
  "about": "“VDAC1 compositions and methods of use thereof for regulating apoptosis” (Ben Gurion University of the Negev Research and Development …, priority 2005, dated 2014)",
  "key": {"[1]": {"tested_on": "U937 cells", "assay": "HK-I over-expression protection against apoptotic cell death in double-transfected cells", "type": "cell-based, human", "conditions": "U937 or T-Rex 293 cells stably over-expressing HK-I, mVDAC1-GFP constructs", "method": "U937 cells were transfected with pcDNA3.1-HisA or pcDNA3.1-HisA-HK-I (neomycin resistance; provided by Dr. J. E. Wilson, University of Michigan) by electroporation, and grown in complete RPMI 1640 with neomycin ([…]). After 12 days, the selected cells were transfected with pEGFP, pEGFP-mVDAC1 or pEGFP-E72Q-mVDAC1 and were grown in the presence of neomycin ([…]). The viability of double-transfected cells was analyzed during 48 to 76 hr.\nThe effect of HK-I over-expression on apoptotic cell death of the GFP-tagged version of native and E72Q-mVDAC1 over-expressing cells was examined.\nSince VDAC1 overexpression induces cell death, U937 cells (FIG. 4A, 4B) or T-Rex™ 293 human embryonic kidney cells (FIG. 4B) were first transformed to stably over-express HK-I and then transfected with native, E65Q, E72Q, K73L, D77N, N75A, or G67A mutated mVDAC1-GFP. […] This β-loop includes amino acid residues T64 to about N78."}, "[2]": {"tested_on": "U937 cells", "assay": "Apoptotic cell death of U937 cells transfected with native or mutated mVDAC1, with/without RuR (acridine orange/ethidium bromide staining)", "type": "cell-based, human", "method": "Logarithmically-growing U937 cells were resuspended in RPMI 1640 supplemented with 10% FCS, 100 U/ml penicillin and […] streptomycin at a concentration of 2.5×10^7 cells/ml. Cells were transfected to express rat or murine VDAC1 using the vectors pEGFP, pEGFP-VDAC1, pEGFP-E72Q-mVDAC1, pE-mVDAC1 or pE-E72Q-mVDAC1. Transfection of the U937 cells was performed by electroporation with a single pulse from a Bio-Rad micropulser II with a capacitance extender unit (200 V, […]). Cells were incubated on ice for 10 min before and after transfection, and then resuspended in 20 ml of RPMI 1640 supplemented with 10% FCS, 1 mM l-glutamine, 100 U/ml penicillin and […] streptomycin. […] GFP-positive cells were viewed under a microscope using a blue filter.\nCells were plated at a density of 5.4×10^4 cells/cm^2 in 24-well plates, washed once with PBS and placed in serum-free medium. Cells were then incubated with or without RuR or Ru360. Cells were also treated with […] staurosporine (STS) to induce apoptosis and analyzed for viability 3, 5 and 7 hrs after STS addition. Treatments with curcumin (120 μM) or As2O3 (20 μM) were carried out for 48 hrs.\nFifty six (56) hr after transfection, cells were exposed for 20 hr to RuR (1 μM) and cell viability was analyzed using acridine orange/ethidium bromide staining. In each independent experiment, approximately 250 cells were counted for each including early and late apoptotic cells. Data shown in FIG. 5 and Table 2 are the mean±SEM (n=3)."}},
  "data": [
    {"substance": "D77N-mVDAC1: VDAC1 polypeptide variant D77N [Peptide D77N-mVDAC1]", "values": [
      {"measurement": "protective effect of HK-I over-expression against cell death induced by mVDAC1 over-expression", "setting": "[1]", "result": "no protective effect"}
    ]},
    {"substance": "E65Q-mVDAC1: VDAC1 polypeptide variant E65Q [Peptide E65Q-mVDAC1]", "values": [
      {"measurement": "protective effect of HK-I over-expression against cell death induced by mVDAC1 over-expression", "setting": "[1]", "result": "no protective effect"}
    ]},
    {"substance": "E72Q-mVDAC1: VDAC1 polypeptide variant E72Q [Peptide E72Q-mVDAC1]", "values": [
      {"measurement": "protective effect of HK-I over-expression against cell death induced by mVDAC1 over-expression", "setting": "[1]", "result": "no protective effect"}
    ]},
    {"substance": "E72Q-mVDAC-GFP: GFP-tagged E72Q mVDAC1 variant", "values": [
      {"measurement": "% of protection", "setting": "[2]; protection by RuR (1 μM) against apoptosis of transfected U937 cells", "result": 0, "unit": "%"},
      {"measurement": "Apoptotic cells, % −RuR", "setting": "[2]; transfected U937 cells, without RuR, mean±SEM (n=3)", "result": "71.9 ± 4.7", "unit": "%"},
      {"measurement": "Apoptotic cells, % +RuR", "setting": "[2]; transfected U937 cells, 56 hr after transfection exposed 20 hr to RuR (1 μM), mean±SEM (n=3)", "result": "71.6 ± 4.4", "unit": "%"}
    ]},
    {"substance": "E202Q-mVDAC1: VDAC1 polypeptide variant E202Q [Peptide E202Q-mVDAC1]", "values": [
      {"measurement": "protective effect of HK-I over-expression against cell death induced by mVDAC1 over-expression", "setting": "[1]", "result": "no protective effect"}
    ]},
    {"substance": "G67A-mVDAC1: VDAC1 polypeptide variant G67A [Peptide G67A-mVDAC1]", "values": [
      {"measurement": "protective effect of HK-I over-expression against cell death induced by mVDAC1 over-expression", "setting": "[1]", "result": "dramatically reduced"}
    ]},
    {"substance": "K73L-mVDAC1: VDAC1 polypeptide variant K73L [Peptide K73L-mVDAC1]", "values": [
      {"measurement": "protective effect of HK-I over-expression against cell death induced by mVDAC1 over-expression", "setting": "[1]", "result": "no protective effect"}
    ]},
    {"substance": "N75A-mVDAC1: VDAC1 polypeptide variant N75A [Peptide N75A-mVDAC1]", "values": [
      {"measurement": "protective effect of HK-I over-expression against cell death induced by mVDAC1 over-expression", "setting": "[1]", "result": "dramatically reduced"}
    ]}
  ]
}
